Source: patent US20200199575A1, “ROLE OF EXOSOMES, EXTRACELLULAR VESICLES, IN THE REGULATION OF METABOLIC HOMEOSTASIS” (CHILDREN'S HOSPITAL MEDICAL CENTER, priority 2017, published 2020)
“Also recorded” adds a separate entry of the source.

Assays:
[1] = test system: exosome secretion and RNA loading onto exosomes; conditions: cited from earlier work
N-SMase = molecular target: T1, N-SMase (Rattus norvegicus, UniProt O35049); conditions: rat brain; non-competitive inhibitor; cited from earlier work
T1 construct: host or cells: rat brain
T1 sequence (O35049 1-655): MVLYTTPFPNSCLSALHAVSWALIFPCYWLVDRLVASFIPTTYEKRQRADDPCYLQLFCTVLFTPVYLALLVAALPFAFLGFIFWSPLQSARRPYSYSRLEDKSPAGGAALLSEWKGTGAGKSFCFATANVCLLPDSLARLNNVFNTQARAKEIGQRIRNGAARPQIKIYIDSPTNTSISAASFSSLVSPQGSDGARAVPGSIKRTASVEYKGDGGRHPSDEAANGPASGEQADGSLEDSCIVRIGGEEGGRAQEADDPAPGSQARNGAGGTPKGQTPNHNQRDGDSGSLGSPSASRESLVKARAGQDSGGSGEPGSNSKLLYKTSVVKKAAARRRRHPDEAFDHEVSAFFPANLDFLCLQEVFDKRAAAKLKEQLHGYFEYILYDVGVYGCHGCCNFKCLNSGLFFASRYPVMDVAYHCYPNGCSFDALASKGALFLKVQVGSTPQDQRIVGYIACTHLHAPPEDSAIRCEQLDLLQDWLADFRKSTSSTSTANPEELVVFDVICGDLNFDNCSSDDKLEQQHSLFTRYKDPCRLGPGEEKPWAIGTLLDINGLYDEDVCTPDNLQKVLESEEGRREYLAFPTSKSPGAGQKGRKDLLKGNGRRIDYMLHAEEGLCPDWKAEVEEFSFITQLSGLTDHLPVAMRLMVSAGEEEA

SMPD3 = test system: SMPD3
Excerpt: (§1) (A) A scheme of the exosome transfer from cultured primary mouse hepatocytes to primary mouse bone marrow-derived macrophages (BMDMs). […] The same number of exosomes was used.
(§2) SMPD3 plays a critical role in EV secretion and affects components of EV such as RNA.

[2] = test system: primary mouse bone marrow-derived macrophages (BMDMs); experiment: Exosome transfer from treated primary mouse hepatocytes to bone marrow-derived macrophages, inflammatory response (IL-6 mRNA); conditions: PA 100 μM for 20 hours; exosome fraction by MagCapture kit
Excerpt: as §1, §2

| Compound | Effect on RNA loading onto exosomes [1] | Effect on exosome secretion [1] | IC50 (N-SMase) | Expression of SMPD3 in cultured hepatocytes on palmitate exposure (SMPD3) | Inflammatory effect (IL-6 mRNA expression) in BMDMs of exosomes from hepatocytes treated with palmitate [2] |
| --- | --- | --- | --- | --- | --- |
| Cl.Cl.O=C(/C=C/c1ccc(/C=C/C(=O)Nc2ccc(C3=NCCN3)cc2)cc1)Nc1ccc(C2=NCCN2)cc1 [GW4869] | inhibit | inhibit | 1000 nM |  |  |
| CCCCCCCCCCCCCCCC(=O)O [palmitate] |  |  |  | induced | increase expression of IL-6 mRNA in BMDMs; also recorded: caused higher inflammatory responses in primary murine macrophages |
